{"source": "patent US11045475B2", "about": "“Application of methyl 4-[9-(6-aminopuryl)]-2(s)-hydroxybutyrate in preparation of medicament for treating psoriasis and vitiligo” (SHANGHAI INSTITUTE OF MATERIA MEDICA, CHINESE ACADEMY OF …, priority 2016, dated 2021)", "key": {"IL-17": {"test_system": "IL-17", "assay": "IL-17 ELISA of damaged skin extract of imiquimod-induced psoriasis mice", "type": "in vivo, female balb/c mice", "details": "after 7 days of ointment treatment, FIG. 3", "text": "FIG. 3 illustrates the inhibition of IL-17 level in psoriatic lesions induced by imiquimod with methyl 4-[9-(6-aminopuryl)]-2(s)-hydroxybutyrate in mice. Skin of the lesions is taken on Day 7 of imiquimod-induced psoriasis modeling, and its IL-17 content is detected by ELISA. *P<0.05, n≥5. The groups in FIG. 3 are the normal control group, model control group and ointment treatment group.\nConstruction of animal models with psoriasis: normal control group, model control group, calcipotriol ointment control group, ointment treatment group, n=10/group. […]\n(§1) Treatment: dorsal skin of the mice of the normal control group and model control group was applied with ointment base of 62.5 mg from Example 1 every day, and the dorsal skin of the mice of calcipotriol control group was applied with Calcipotriol Ointment of 62.5 mg every day, and the dorsal skin of the mice of ointment treatment group was applied with methyl 4-[9-(6-aminopuryl)]-2(s)-hydroxybutyrate ointment of 62.5 mg. […] Based on PASI score system, the erythema (FIG. 1A), scales (FIG. 1B) and skin thickening (FIG. 1C) of the dorsal skin were scored (0-4). […]\nThe mice were weighed when the psoriasis was more serious after 7 days of treatment; the mice were sacrificed, and the spleens of each group were removed and weighed. […] Inflammatory factor (IL-17) of the extract was detected by ELISA (FIG. 3)."}, "[1]": {"target": "S-adenosyl-L-homocysteine hydrolase (SAHH) (Homo sapiens, UniProt P23526)", "sequence (P23526 whole entry, species assumed)": "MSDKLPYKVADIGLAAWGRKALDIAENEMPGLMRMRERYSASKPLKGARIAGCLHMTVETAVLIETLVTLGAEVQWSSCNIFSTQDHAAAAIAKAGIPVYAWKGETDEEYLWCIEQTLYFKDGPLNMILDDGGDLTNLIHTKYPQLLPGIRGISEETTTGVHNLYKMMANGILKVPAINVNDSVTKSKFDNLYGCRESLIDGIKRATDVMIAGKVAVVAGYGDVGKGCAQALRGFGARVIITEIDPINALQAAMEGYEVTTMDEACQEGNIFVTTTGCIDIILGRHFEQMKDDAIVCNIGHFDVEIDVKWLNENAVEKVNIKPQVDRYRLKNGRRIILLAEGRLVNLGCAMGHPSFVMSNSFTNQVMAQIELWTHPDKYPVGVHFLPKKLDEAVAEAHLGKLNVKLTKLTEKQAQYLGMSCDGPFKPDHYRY", "details": "background statement; cited from earlier work"}, "[2]": {"test_system": "experimental autoimmune encephalomyelitis (EAE)", "details": "animal models, background statement; cited from earlier work"}, "[3]": {"test_system": "psoriasis induced by imiquimod in mice", "assay": "Imiquimod-induced psoriasis in mice, ointment treatment, PASI scoring and skin lesion photographs", "type": "in vivo, female balb/c mice", "details": "62.5 mg ointment (0.2 g per 10 g) on dorsal skin every day, observed over 15 days, FIG. 1", "text": "Testing materials: the ointment base from Example 1; the methyl 4-[9-(6-aminopuryl)]-2(s)-hydroxybutyrate ointment from Example 2, and per 10 g of the ointment contains 0.2 g of methyl 4-[9-(6-aminopuryl)]-2(s)-hydroxybutyrate.\nModeling drug: Imiquimod Cream produced by SICHUAN MED-SHINE PHARMACEUTICAL CO., LTD.; SDA (State Drugs Administration) License No.: GUOYAOZHUNZI H20030128; Lot No.: 15060139.\nPositive control drug: Calcipotriol Ointment produced by CHONGQING HUAPONT PHARM CO., LTD., SDA (State Drugs Administration) License No.: GUOYAOZHUNZI H20113541; Lot No.: 2015002.\nExperimental animals: female balb/c mice with body weight of 18-22 g, provided by SHANGHAI SLAC LABORATORY ANIMAL CO., LTD. […]\nas §1"}, "[4]": {"test_system": "T lymphocyte activation in spleen", "assay": "Flow cytometry of naive and active T cells in spleen lymphocytes of imiquimod-induced psoriasis mice", "type": "in vivo, female balb/c mice", "details": "after 7 days of ointment treatment, FIG. 2C-2E", "text": "(§2) FIG. 2 illustrates the inhibition of spleen swelling and T lymphocyte activation in spleen induced by imiquimod with methyl 4-[9-(6-aminopuryl)]-2(s)-hydroxybutyrate in mice. Mice models are weighed (FIG. 2A) and euthanized on Day 7 of imiquimod-induced psoriasis modeling, and spleens of the mice were weighed to calculate spleen index (FIG. 2B); naive T cells (CD3^+CD4^+CD44^−CD62L^+) ratio (FIG. 2C, 2D), and active T cells (CD3^+CD4^+CD44^+CD62L^−) ratio (FIG. 2C, 2E) are detected. *P<0.05, ***P<0.001, n≥5. The groups in FIG. 2 are the normal control group, model control group and ointment treatment group. FIG. 2C is for CD3^+CD4^+ T cells, and FIGS. 2D and 2E show the ratio of CD3^+CD4^+ T cells in all spleen lymphocytes. […]\nas §1"}, "cells": {"test_system": "cells", "details": "background statement; cited from earlier work"}, "[5]": {"test_system": "systemic lupus erythematosus (SLE)", "details": "animal models, background statement; cited from earlier work"}, "spleen swelling": {"test_system": "spleen swelling", "assay": "Spleen weight / spleen index in imiquimod-induced psoriasis mice", "type": "in vivo, female balb/c mice", "details": "after 7 days of ointment treatment, FIG. 2A, 2B", "text": "as §2, §1"}}}
{"smiles": "COC(=O)C(O)CCn1cnc2c(N)ncnc21", "note": "(centres unmarked) [methyl 4-[9-(6-aminopuryl)]-2(s)-hydroxybutyrate]", "values": [{"measurement": "level of IL-17 in the damaged skin", "setting": "IL-17", "value": "inhibited the level of IL-17 in the damaged skin"}, {"measurement": "type of SAHH inhibition", "setting": "[1]", "value": "type III inhibitor of SAHH"}, {"measurement": "therapeutic effect on EAE", "setting": "[2]", "value": "good therapeutic effect"}, {"measurement": "PASI scores of erythema, scales, skin thickening and total score of skin lesion severity", "setting": "[3]", "value": "relieved psoriasis induced by imiquimod in mice effectively"}, {"measurement": "T lymphocyte activation (ratio of naive and active T cells in spleen lymphocytes)", "setting": "[4]", "value": "inhibited T lymphocyte activation in mice with psoriasis induced by imiquimod"}, {"measurement": "cytotoxicity", "setting": "cells", "value": "low cytotoxicity"}, {"measurement": "therapeutic effect on SLE", "setting": "[5]", "value": "good therapeutic effect"}, {"measurement": "spleen swelling (spleen index)", "setting": "spleen swelling", "value": "improved spleen swelling in mice with psoriasis induced by imiquimod significantly"}]}
